Data published in PMC12606464, “Investigating NFE2L1 activators for targeted protein aggregate clearance: a follow-up study” (RSC Medicinal Chemistry, 2025).
Marks after values point to notes of the source that are not given here.

Tests used:
NFE2L1 pathway = assay: 3×PSMA4-ARE-LUC dual luciferase reporter assay in HEK293 cells; type: cell-based, human; details: Homo sapiens; 5 μM, 16 h, HEK293, luminescence relative to DMSO-treated cells; read-out: NFE2L1 activation [5 μM]
Source text: In our previous work,[43] we developed a library of NFE2L1 stimulators using a cell-based luciferase reporter assay. This system was based on three tandem copies of the antioxidant response element (ARE) derived from the NFE2L1 target gene proteasome subunit alpha type-4 (3xPSMA4, PSMA4-ARE-LUC). It was designed to detect the proteasome “bounce-back” response induced by proteasome inhibitors such as MG132 or bortezomib.[22,43,45,46] The reporter assay was adapted to a 384-well format and used to evaluate a new set of RUN compounds designed around the structural framework of the RUN-47 activator. We focused on identifying compounds that increased the 3×PSMA4-ARE-LUC signal (Fig. 1A), while simultaneously assessing cytotoxicity (see the SI, Fig. S2). […] In contrast, thiourea- and urea-containing derivatives generally produced only weak to intermediate responses, rarely exceeding a fold change of 7.
Fig. 1 (A) Targeted library screening of RUN compounds using the 3×PSMA4-ARE-LUC dual reporter assay in HEK293 cells. Cells were exposed to RUN compounds (5 μM) for 16 hours, and luciferase activity was measured. Data are presented as the mean ± SD from three independent experiments (n = 3). Results are shown as a fold change in luminescence relative to DMSO-treated cells. Selected hit compounds are highlighted in distinct colours. (B) RUN-89 specifically activates the NFE2L1 pathway. The DDI2 knockout (KO) and parental (WT) HCT116 cells were transfected with the 3×PSMA4-ARE-LUC reporter and treated with 0.5 μM bortezomib (BTZ) and 5 μM RUN-89 for 16 hours. Data are presented as the Geomean ± GeoSD of three independent experiments (n = 3). Statistical analysis was performed on log2-transformed values using two-way repeated-measures ANOVA followed by Šídak's multiple comparison test. (C) RUN-89 selectively triggers downstream signaling events associated with NFE2L1 gene expression. HEK293 cells were transfected with lipid nanoparticles (LNPs) carrying siRNAs targeting NFE2L1 or NFE2L2. LNPs formulated with non-targeting siRNA served as a negative control. Following 24 hours of incubation, cells were treated with 7.5 μM RUN-89 or DMSO (vehicle) for an additional 16 hours. Expression of the proteasomal subunit gene PSMC4 was then quantified by RT-qPCR. Data are shown as the Geomean ± GeoSD from three independent biological replicates (n = 3). Log2-transformed data were analyzed using two-way repeated-measures ANOVA with the Geisser–Greenhouse correction, followed by Tukey's multiple comparison test with individual variances computed for each comparison. Additional results for NFE2L1, NFE2L2, PSMB7, and PSMD12 are presented in SI Fig. S10.
Figure S1: Concentration–response of luciferase cell-based assay (PSMA4-ARE-luc2P reporter) on treatment with RUN-81, RUN-89, and RUN-94. Concentration is plotted on the X-axis. Dose–response relationships were analyzed using a four-parameter logistic curve (4PL), or a bell-shaped dose-response curve, both with weighting 1/Y^2. Dotted lines represent 95% confidence bands. Calculated EC₅₀ values, curve parameters, and asymmetrical confidence intervals are summarized in the accompanying table . Data are presented as mean ± SD from four independent experiments (n=4).
(§1) 2 Biology Experimental Procedures
(§2) Safety statement: No unexpected or unusually high safety hazards were encountered. […]
Most of the cell lines were cultured in Dulbecco's Modified Eagle Medium (DMEM) enriched with 10% fetal bovine serum (FBS) and 2 mM L-glutamine, under standard conditions of 37 °C with 5% CO₂. DNA transfection was performed with Lipofectamine 2000, following the manufacturer's instructions. Transgenic cells were then selected with either G418 (400 µg/mL) or hygromycin B (450 µg/mL), based on the selection marker encoded by the plasmid used. Cell viability was evaluated using the […]

HEK293 cells = assay: alamarBlue cytotoxicity assessment in HEK293 cells; type: cell-based, human; details: 16 h
Procedure: Figure S2: Concentration-dependent cytotoxicity assessment of RUN compounds.
HEK293 cells were treated for 16 hours with increasing concentrations of RUN compounds (1.25 µM; 2.5 µM; 5; 7.5 and 10 µM) or DMSO (negative control). Cell viability was determined using the alamarBlue assay following the protocol of Riss.(1) Data are presented as means ± SD from three independent experiments (n = 3). Statistical analysis was done using repeated measures one-way ANOVA with Geisser–Greenhouse correction, followed by Dunnett’s multiple comparisons test. *p<0.05. Detailed results of the analysis are shown in […]
(1 picture or pasted object on this page, not shown here)
as §1, §2
Cell lines were sourced from the ATCC (USA) and/or ECACC (UK), namely HCT116 (human colorectal carcinoma), ATCC CCL-247 (RRID:CVCL_0291), HEK-293 (human embryonic kidney), ATCC CRL-1573 (RRID:CVCL_0045), SH-SY5Y (human neuroblastoma), ATCC CRL-2266 (RRID:CVCL_0019). The characteristics of DDI2 knockout cells derived from HCT116 cells have been described previously (Sedlacek et al., 2025). All cell lines were tested for mycoplasma contamination. Most of the cell lines were cultured in Dulbecco's Modified Eagle Medium (DMEM) enriched with 10% fetal bovine serum (FBS) and 2 mM L-glutamine, under standard conditions of 37 °C with 5% CO₂. DNA transfection was performed with Lipofectamine 2000, following the manufacturer's instructions. Transgenic cells were then selected with either G418 (400 µg/mL) or hygromycin B (450 µg/mL), based on the selection marker encoded by the plasmid used. […]

[1] = HEK293, alamarBlue, concentration not given

Row | SMILES | fold induction at 5 µM (NFE2L1 pathway) | Tox [% of ctrl.] (HEK293 cells; [1]) | Tox [% of ctrl.] (HEK293 cells; human)
1 | COc1ccc(/C=C2\CN(C(=S)Nc3cccnc3)C/C(=C\c3ccc(OC)c(OC)c3)C2=O)cc1OC [RUN-73] | 1.9 | 84% of ctrl. | 
2 | CCOC(=O)CNC(=O)N1C/C(=C\c2ccc(OC)c(OC)c2)C(=O)/C(=C/c2ccc(OC)c(OC)c2)C1 [RUN-74] | 7.1 | 81% of ctrl. | 
3 | CCOC(=O)CCNC(=O)N1C/C(=C\c2ccc(OC)c(OC)c2)C(=O)/C(=C/c2ccc(OC)c(OC)c2)C1 [RUN-75] | 6.8 | 82% of ctrl. | 
4 | COc1cccc(NC(=O)N2C/C(=C\c3ccc(OC)c(OC)c3)C(=O)/C(=C/c3ccc(OC)c(OC)c3)C2)c1 [RUN-76] | 6.8 | 88% of ctrl. | 
5 | COc1ccc(/C=C2\CN(C(=S)NCCN3CCOCC3)C/C(=C\c3ccc(OC)c(OC)c3)C2=O)cc1OC [RUN-77] | 2.5 | 84% of ctrl. | 
6 | COc1ccc(/C=C2/C(=O)/C(=C/c3ccc(OC)c(OC)c3)C3CCC2N3)cc1OC [RUN-78] | 1.4 |  | 89% of ctrl.
7 | COc1ccc(/C=C2/C(=O)/C(=C/c3ccc(OC)c(OC)c3)C3CCC2N3CCN2CCOCC2)cc1OC [RUN-79] | 0.9 |  | 104% of ctrl.
8 | COc1ccc(/C=C2/C(=O)/C(=C/c3ccc(OC)c(OC)c3)C3CCC2N3Cc2ccc(C#N)cc2)cc1OC [RUN-80] | 2 |  | 98% of ctrl.
9 | COCCOCCOCC(=O)N1C/C(=C\c2ccc(OC)c(OC)c2)C(=O)/C(=C/c2ccc(OC)c(OC)c2)C1 [RUN-82] | 3.2 | 85% of ctrl. | 
10 | COc1ccc(/C=C2\CN(C(=O)C34CCN(CC3)CC4)C/C(=C\c3ccc(OC)c(OC)c3)C2=O)cc1OC [RUN-83] | 1.5 |  | 87% of ctrl.
11 | COc1ccc(/C=C2\CN(C(=O)CN)C/C(=C\c3ccc(OC)c(OC)c3)C2=O)cc1OC [RUN-85] | 2.7 |  | 
12 | COc1ccc(/C=C2\CC(NC(=O)CN(C)C)C/C(=C\c3ccc(OC)c(OC)c3)C2=O)cc1OC.O=C(O)C(F)(F)F (stereo not shown) [RUN-86] | 2 | 96% of ctrl. | 
13 | COc1ccc(/C=C2\CC(NC(=O)C34CCN(CC3)CC4)C/C(=C\c3ccc(OC)c(OC)c3)C2=O)cc1OC (stereo not shown) [RUN-87] | 1 |  | 101% of ctrl.
14 | COCCOCCOCC(=O)NC1C/C(=C\c2ccc(OC)c(OC)c2)C(=O)/C(=C/c2ccc(OC)c(OC)c2)C1 (stereo not shown) [RUN-88] | 3.9 | 86% of ctrl. | 
15 | COc1ccc(/C=C2\CC(NC(=O)CN3CCN(C)CC3)C/C(=C\c3ccc(OC)c(OC)c3)C2=O)cc1OC (stereo not shown) [RUN-90] | 2.8 | 87% of ctrl. | 
16 | COc1ccc(/C=C2\CC(NC(=O)CCCN(C)C)C/C(=C\c3ccc(OC)c(OC)c3)C2=O)cc1OC (stereo not shown) [RUN-91] | 1.6 | 95% of ctrl. | 
17 | COc1ccc(/C=C2\CC(NC(=O)CN)C/C(=C\c3ccc(OC)c(OC)c3)C2=O)cc1OC.O=C(O)C(F)(F)F (stereo not shown) [RUN-92] | 1.6 | 90% of ctrl. | 

Row | SMILES | fold induction at 5 µM (NFE2L1 pathway) | Tox [% of ctrl.] (HEK293 cells; [1]) | Tox [% of ctrl.] (HEK293 cells; human)
18 | COc1ccc(/C=C2\CC(NC(=O)c3ncccc3C)C/C(=C\c3ccc(OC)c(OC)c3)C2=O)cc1OC (stereo not shown) [RUN-93] | 11.9 | 75% of ctrl. | 
19 | COc1ccc(/C=C2\CC(NC(=O)Cc3c[nH]cn3)C/C(=C\c3ccc(OC)c(OC)c3)C2=O)cc1OC (stereo not shown) [RUN-95] | 2 | 96% of ctrl. | 
20 | COc1ccc(/C=C2\CC(NC(=O)[C@@H]3CCCN3)C/C(=C\c3ccc(OC)c(OC)c3)C2=O)cc1OC.O=C(O)C(F)(F)F (stereo partly shown) [RUN-96] | 2.2 | 93% of ctrl. | 
21 | COc1ccc(/C=C2\CC(NC(=O)C3CCC(=O)N3)C/C(=C\c3ccc(OC)c(OC)c3)C2=O)cc1OC (stereo not shown) [RUN-97] | 1.6 | 99% of ctrl. | 
22 | COc1ccc(/C=C2\CC(NC(=O)CN3CCOCC3)C/C(=C\c3ccc(OC)c(OC)c3)C2=O)cc1OC.O=C(O)C(F)(F)F (stereo not shown) [RUN-98] | 2.1 | 102% of ctrl. | 
23 | COc1ccc(/C=C2\CC(NC(=O)Cn3ccnc3)C/C(=C\c3ccc(OC)c(OC)c3)C2=O)cc1OC (stereo not shown) [RUN-99] | 1.6 | 103% of ctrl. | 
24 | COc1ccc(/C=C2\CC(NC(=O)CCCN)C/C(=C\c3ccc(OC)c(OC)c3)C2=O)cc1OC.O=C(O)C(F)(F)F (stereo not shown) [RUN-100] | 1.2 | 100% of ctrl. | 
25 | COc1ccc(/C=C2\CC(NC(=O)CCN(C)C)C/C(=C\c3ccc(OC)c(OC)c3)C2=O)cc1OC (stereo not shown) [RUN-101] | 2 | 97% of ctrl. | 
26 | CCN(CC)CC(=O)NC1C/C(=C\c2ccc(OC)c(OC)c2)C(=O)/C(=C/c2ccc(OC)c(OC)c2)C1 (stereo not shown) [RUN-102] | 1.3 | 96% of ctrl. | 
27 | COc1ccc(/C=C2\CN(C(=O)C3CCCC3)C/C(=C\c3ccc(OC)c(OC)c3)C2=O)cc1OC [RUN-103] | 9.4 | 80% of ctrl. | 
28 | COc1ccc(/C=C2\CC(NC(=O)CCN)C/C(=C\c3ccc(OC)c(OC)c3)C2=O)cc1OC (stereo not shown) [RUN-104] | 0.8 | 105% of ctrl. | 
29 | COc1ccc(/C=C2\CN(C(=O)CN3CCN(C)CC3)C/C(=C\c3ccc(OC)c(OC)c3)C2=O)cc1OC [RUN-105] | 4.5 | 78% of ctrl. | 
30 | COc1ccc(/C=C2\CN(C(=O)CCCN(C)C)C/C(=C\c3ccc(OC)c(OC)c3)C2=O)cc1OC.O=C(O)C(F)(F)F [RUN-106] | 2.8 | 75% of ctrl. | 
31 | COc1ccc(/C=C2\CN(C(=O)c3ncccc3C)C/C(=C\c3ccc(OC)c(OC)c3)C2=O)cc1OC [RUN-107] | 5 | 73%* % of ctrl. | 
32 | COc1ccc(/C=C2\CN(C(=O)c3ccccn3)C/C(=C\c3ccc(OC)c(OC)c3)C2=O)cc1OC [RUN-108] | 0.9 | 83% of ctrl. | 
33 | COc1ccc(/C=C2\CN(C(=O)Cc3c[nH]cn3)C/C(=C\c3ccc(OC)c(OC)c3)C2=O)cc1OC [RUN-109] | 4.3 | 78% of ctrl. | 
34 | COc1ccc(/C=C2\CN(C(=O)[C@@H]3CCC(=O)N3)C/C(=C\c3ccc(OC)c(OC)c3)C2=O)cc1OC [RUN-110] | 1.8 | 85% of ctrl. | 
